Data published in US10072023B2, “Diarylethene compounds and uses thereof” (SWITCH MATERIALS, INC., priority 2011, dated 2018).

Experiments:
Format in all cases: physicochemical
[1] = Absorbance at photostationary state (PSS) under simulated sunlight or 365 nm light; set-up: λ max: unit not given here; conditions: for Absorbance at PSS, 365 nm: 365 nm light source; for Absorbance at PSS, 365 nm / Absorbance at PSS, full / Absorbance at PSS, +UV / λ max: 2.0×10^−5 M in triglyme; for sensitivity index: ratio of PSS under 365 nm light to PSS under full spectrum light (without UV blocking film); for Absorbance at PSS, full: simulated sunlight (QSUN solar simulator), no UV blocking film; for Absorbance at PSS, +UV: simulated sunlight with UV blocking film (cutoff 370 nm); for λ max: wavelength of maximum absorbance in the visible range, ring-closed isoform
Procedure, shortened: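 Compounds at 2.0×10^−5 M in triglyme, photofaded with visible light, then irradiated with simulated sunlight (xenon arc) or 365 nm light until the UV/Vis spectrum stabilized. Also irradiated through a UV-blocking film (370 nm cutoff); sensitivity index is PSS under 365 nm divided by PSS under full spectrum.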

[2] = Solubility in indicated solvent; conditions: % wt soluble in triglyme
From the text: A compound with greater solubility allows for a formulation or material with a greater concentration of coloured molecule to be incorporated into a composition. This may allow for increasing the contrast ratio for a compound with a lesser absorbance at PSS. Inclusion of a solubilizing group in a compound according to various embodiments of the invention may increase solubility. Examples of solubilizing groups may include alkoxy or siloxy groups.

[3] = PSS and light composition (sunlight vs interior lighting); conditions: 2×10^−4 M in triglyme
From the text: The difference in PSS as a function of light source type was investigated. The light sources included direct sunlight (filtered through window glass) and interior lighting. Irradiance information and spectral profiles of light sources are provided in Table 9 and FIG. 2, respectively. Six compounds (2×10^−4 M solutions of S096, S094, S079, S044, S042 and S035 in triglyme) were investigated and compared for performance on the basis of maximum difference in darkening ability between sunlight and interior lighting conditions. Darkening ability is indicated by the absorbance at λmax in the visible light spectrum for the ring-closed isomer of the chromophore.
Samples were then moved away from the window (300 cm from window, with interior lighting on) to alter the light composition by reducing the sunlight component. […] Finally, samples were again irradiated to the darkest state under sunlight conditions (20 cm from window) and then subjected to interior lighting conditions only (sunlight blocked out with blinds), allowing the samples to fade to a lower PSS specific to these lighting conditions as shown in FIG. 3.
Sample darkening times were less than one minute, while sample photofading times ranged as high as 20 minutes. […]

SMILES | Absorbance at PSS, 365 nm [1] | sensitivity index [1] | Absorbance at PSS, full [1] | Absorbance at PSS, +UV [1] | λ max [1] | Solubility [2] | change in degree of coloration in response to variation in the light source [3]
CC(C)(C)c1ccc(-c2cc(C3=C(c4cc(-c5ccc(C(C)(C)C)cc5)sc4-c4ccc(C(C)(C)C)cc4)C(F)(F)C(F)(F)C3(F)F)c(-c3ccc(C(C)(C)C)cc3)s2)cc1 [S042] | 0.233 | 2.40 | 0.097 | 0.04 | 612 | 0.5 % wt | greatest change in degree of coloration
CC(C)CCOc1ccc(-c2cc(C3=C(c4cc(-c5ccc(OCCC(C)C)cc5)sc4-c4ccc(OCCC(C)C)cc4)C(F)(F)C(F)(F)C3(F)F)c(-c3ccc(OCCC(C)C)cc3)s2)cc1 [S094, 3,3′-(perfluorocyclopent-1-ene-1,2-diyl)bis(2,5-bis(4-(isopentyloxy)phenyl)thiophene)] | 0.311 | 1.74 | 0.179 | 0.103 | 625 | – | greatest change in degree of coloration
